This note sets out measurements from patent US20250197513A1, “OSMR-SPECIFIC MONOCLONAL ANTIBODIES AND METHODS OF THEIR USE” (THE BOARD OF REGENTS OF THE UNIVERSITY OF TEXAS SYSTEM, priority 2021, published 2025).

For orientation: IC50 means the point on the concentration scale where inhibition reaches its midpoint.

Experiment [1] concerns SL3 cells. Description: Cell viability, cisplatin 48 h. As to conditions: cisplatin alone. The class given is cell-based, human.
Protocol: (§1) CCK8 cell viability assay: One thousand cells were seeded each well in 96-well plates. Following treatment for 48 h, the cells were washed with PBS and incubated for 4 h with CCK8 reagent at 37° C. in 5% CO2 incubator according to manufacturer's guidelines. The absorbance was measured at 460 nm.
Experiment [2] deals with A2780 ovarian cancer. Briefly: In vivo, intraperitoneal A2780-sensitive luciferase tumors. Set-up: species or system athymic nude mice. Conditions: single agent, mice stimulated with OSM; cisplatin 5 mg/kg biweekly.
The test system of experiment [3] is A2780-CP tumors. Briefly: In vivo, intraperitoneal A2780-cisplatin resistant luciferase tumors. Further details: species or system athymic nude mice. As to conditions: cisplatin alone, 5 mg/kg biweekly.
The test system of experiment [4] is A2780-Cis cells. Description: Cell viability, cisplatin 48 h. Type of experiment: cell-based, human. As to conditions: cisplatin alone.
Protocol: as §1
Experiment [5] has as its system OVCAR8-Cis cells. Briefly: Cell viability, cisplatin 48 h. The class given is cell-based, human. As to conditions: cisplatin alone.
Protocol: as §1
The subject of experiment [6] is OVCAR8 cells. Description: Cell viability, cisplatin 48 h. The class given is cell-based, human. Conditions: cisplatin alone.
Protocol: as §1
Experiment [7] relates to SL-3-Cis cells. Briefly: Cell viability, cisplatin 48 h. Conditions: cisplatin alone. The class given is cell-based, human.
Protocol: as §1
Experiment [8] deals with A2780 cells. Description: Cell viability, cisplatin 48 h. The class given is cell-based, human. As to conditions: cisplatin alone.
Protocol: as §1

`N.N.[Cl][Pt][Cl]` [cisplatin]: the half-inhibitory concentration (IC50) in experiment [1] came out at 1.21 µM; in experiment [4] it was 10.4 µM; in experiment [5], 13.6 µM; in experiment [6], 1.74 µM; in experiment [7] it was 7.37 µM; in experiment [8] it was 2.04 µM. Also, the “growth of A2780 ovarian cancer (bioluminescence)” value in experiment [2] is listed as “reduced the growth”. The “growth and metastasis of A2780-CP tumors” value in experiment [3] was “did not inhibit the growth and metastasis”.
